In patent publication US4473578A, “β-Lactam antibiotics and their use” (Beecham Group Limited, priority 1979, dated 1984):
Values after ≈ are worked out from the molar mass of the structure shown.

Legend:
Test in all cases: Antibacterial effectiveness in agar
Type in all cases: cell-based
[1] = tested on: Bacteroides fragilis 2118; conditions: in agar; Bacteroides fragilis 2118; read-out: M.I.C.
Source text: (§1) b. Antibacterial effectiveness of the compound of […]

Citrobacter freundii W18 = conditions: in agar; Citrobacter freundii W18; read-out: M.I.C.
Source text: as §1

Proteus mirabilis T318 = conditions: in agar; Proteus mirabilis T318; read-out: M.I.C.
Source text: as §1

Escherichia coli JT414C+ = conditions: in agar; Escherichia coli JT414C+; read-out: M.I.C.
Source text: as §1

[2] = tested on: Klebsiella aerogenes R112; conditions: in agar; Klebsiella aerogenes R112; read-out: M.I.C.
Source text: as §1

[3] = tested on: Escherichia coli NCTC 15418; conditions: NCTC15418; in agar; Escherichia coli NCTC 15418; read-out: M.I.C.
Source text: as §1

[4] = tested on: Citrobacter freundii T221; conditions: in agar; Citrobacter freundii T221; read-out: M.I.C.
Source text: as §1

Escherichia coli Ba78R+ = conditions: in agar; Escherichia coli Ba78R+; read-out: M.I.C.
Source text: as §1

[5] = tested on: Bacteroides fragilis VP1 8249; conditions: VP18249; in agar; Bacteroides fragilis VP1 8249; read-out: M.I.C.
Source text: as §1

[6] = tested on: Serratia marcescens Wo146; conditions: in agar; Serratia marcescens Wo146; read-out: M.I.C.
Source text: as §1

Proteus mirabilis 889 = conditions: in agar; Proteus mirabilis 889; read-out: M.I.C.
Source text: as §1

CC(=O)N/C=C/SC1=C(C(=O)O)N2C(=O)[C@@H]([C@H](C)OS(=O)(=O)O)[C@H]2C1 [MM 13902, reference compound]
MIC [1]: 0.2 µg/mL (≈ 0.51 µM) | MIC (Citrobacter freundii W18): 6.2 µg/mL (≈ 15.8 µM) | MIC (Proteus mirabilis T318): ≤ 0.1 µg/mL | MIC (Escherichia coli JT414C+): 0.4 µg/mL (≈ 1.02 µM) | MIC [2]: 0.2 µg/mL (≈ 0.51 µM) | MIC [3]: ≤ 0.1 µg/mL | MIC [4]: 6.2 µg/mL (≈ 15.8 µM) | MIC (Escherichia coli Ba78R+): 0.8 µg/mL (≈ 2.04 µM) | MIC [5]: 0.2 µg/mL (≈ 0.51 µM) | MIC [6]: 3.1 µg/mL (≈ 7.9 µM) | MIC (Proteus mirabilis 889): 0.2 µg/mL (≈ 0.51 µM)
